Experimental data from patent publication US10100022B2, “Sphingosine kinase inhibitors” (University of Virginia Patent Foundation, priority 2014, dated 2018).
Where a name gives a salt, the structure may show the parent alone.

What was measured:
[1] = target: T1, human sphingosine kinase type 1 (hSPHK1) (Homo sapiens, UniProt Q9NYA1); experiment: Sphingosine kinase assay, recombinant human SPHK1 ([32P]S1P product, scintillation counting); type: biochemical; details: read-out: activity hSPHK1 (range estimate of KI)
T1 construct: made in house; host or cells: Sf9 insect cells (baculovirus)
T1 sequence (Q9NYA1 whole entry): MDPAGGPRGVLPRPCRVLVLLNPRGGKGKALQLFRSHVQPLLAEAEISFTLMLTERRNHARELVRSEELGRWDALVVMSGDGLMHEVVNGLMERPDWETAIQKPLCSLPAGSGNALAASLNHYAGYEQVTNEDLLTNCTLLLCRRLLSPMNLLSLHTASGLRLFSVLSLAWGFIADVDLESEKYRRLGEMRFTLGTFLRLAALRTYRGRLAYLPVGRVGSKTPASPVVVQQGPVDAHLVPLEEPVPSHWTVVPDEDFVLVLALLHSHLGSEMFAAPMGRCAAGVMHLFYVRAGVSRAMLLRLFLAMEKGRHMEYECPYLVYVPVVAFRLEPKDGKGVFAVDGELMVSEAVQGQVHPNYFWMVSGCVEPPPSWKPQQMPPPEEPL
Summary of the method: (§1)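 SPHK1 from cleared lysates of baculovirus-infected Sf9 cells, unpurified; SPHK2 partially purified from Sf9 lysates. Standard sphingosine kinase protocol; [32P]S1P product captured on cation exchange paper and counted by scintillation.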

[2] = target: T2, human sphingosine kinase type 2 (hSPHK2) (Homo sapiens, UniProt Q9NRA0); experiment: Sphingosine kinase assay, recombinant human SPHK2 ([32P]S1P product, scintillation counting); type: biochemical; details: read-out: activity hSPHK2 (range estimate of KI)
T2 construct: purchased; host or cells: Sf9 insect cells (baculovirus)
T2 sequence (Q9NRA0 1-654): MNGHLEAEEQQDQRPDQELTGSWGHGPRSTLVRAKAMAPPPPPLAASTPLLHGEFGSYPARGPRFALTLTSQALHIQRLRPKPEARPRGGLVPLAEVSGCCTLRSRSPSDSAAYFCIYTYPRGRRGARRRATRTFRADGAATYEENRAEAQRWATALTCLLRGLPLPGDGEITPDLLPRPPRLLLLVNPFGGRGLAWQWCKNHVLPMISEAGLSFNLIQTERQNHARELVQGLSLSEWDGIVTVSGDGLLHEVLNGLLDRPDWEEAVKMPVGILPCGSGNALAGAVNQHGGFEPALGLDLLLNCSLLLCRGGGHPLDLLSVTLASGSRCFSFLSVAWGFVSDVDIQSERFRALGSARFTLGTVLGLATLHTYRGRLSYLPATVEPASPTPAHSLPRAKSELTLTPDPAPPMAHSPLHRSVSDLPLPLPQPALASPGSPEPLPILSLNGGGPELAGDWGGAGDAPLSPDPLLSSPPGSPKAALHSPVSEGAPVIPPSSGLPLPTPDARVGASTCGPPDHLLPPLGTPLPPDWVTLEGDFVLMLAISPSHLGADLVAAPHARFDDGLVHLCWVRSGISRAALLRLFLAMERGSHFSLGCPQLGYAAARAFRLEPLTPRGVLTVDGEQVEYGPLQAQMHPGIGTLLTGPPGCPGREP
Summary of the method: as §1

SMILES | Ki [1] | Ki [2]
N=C(N)N1CCC[C@H]1c1nc(-c2ccc3cc(OCCc4ccccc4C(F)(F)F)ccc3c2)no1 [Compound 55A, (S)-amino(2-(3-(6-(2-(trifluoromethyl)phenethoxy)naphthalen-2-yl)-1,2,4-oxadiazol-5-yl)pyrrolidin-1-yl)methaniminium chloride] | > 10 µM | > 10 µM
COCCCOc1ccc2cc(-c3noc([C@@H]4CCCN4C(=N)N)n3)ccc2c1 [Compound 57A, (S)-amino(2-(3-(6-(3-methoxypropoxy)naphthalen-2-yl)-1,2,4-oxadiazol-5-yl)pyrrolidin-1-yl)methaniminium chloride] | > 10 µM | > 10 µM
N=C(N)N1CCC[C@H]1c1nc(-c2ccc3cc(OCc4cccc(Br)c4)ccc3c2)no1 [Compound 58A, (S)-amino(2-(3-(6-((3-bromobenzyl)oxy)naphthalen-2-yl)-1,2,4-oxadiazol-5-yl)pyrrolidin-1-yl)methaniminium chloride] | > 10 µM | > 10 µM
N=C(N)N1C[C@H](O)C[C@H]1c1nc(-c2ccc(OCCCc3ccc4c(c3)OCCO4)c(C(F)(F)F)c2)no1 [Compound 59A] | > 10 µM | > 10 µM
N=C(N)N1CCC[C@H]1c1nc(-c2ccc3cc(OCCc4cccc(C(F)(F)F)c4)ccc3c2)no1 [Compound 60A, (S)-amino(2-(3-(6-(3-(trifluoromethyl)phenethoxy)naphthalen-2-yl)-1,2,4-oxadiazol-5-yl)pyrrolidin-1-yl)methaniminium chloride] | > 10 µM | > 10 µM
CC(C)(C)c1ccc(CCc2ccc(-c3noc([C@@H]4CCCN4C(=N)N)n3)cc2C(F)(F)F)cc1 [Compound 61A] | > 10 µM | < 1 µM
Cc1ccc(COc2ccc3cc(-c4noc([C@@H]5CCCN5C(=N)N)n4)ccc3c2)cc1 [Compound 64A, (S)-amino(2-(3-(6-((4-methylbenzyl)oxy)naphthalen-2-yl)-1,2,4-oxadiazol-5-yl)pyrrolidin-1-yl)methaniminium chloride] | > 10 µM | > 10 µM
COCCCCOc1ccc2cc(-c3noc([C@@H]4CCCN4C(=N)N)n3)ccc2c1 [Compound 65A, (S)-amino(2-(3-(6-(4-methoxybutoxy)naphthalen-2-yl)-1,2,4-oxadiazol-5-yl)pyrrolidin-1-yl)methaniminium chloride] | > 10 µM | > 10 µM
N=C(N)N1CCC[C@H]1c1nc(-c2ccc3cc(OCC4CCCC4)ccc3c2)no1 [Compound 66A, (S)-amino(2-(3-(6-(cyclopentylmethoxy)naphthalen-2-yl)-1,2,4-oxadiazol-5-yl)pyrrolidin-1-yl)methaniminium chloride] | > 10 µM | > 10 µM
N=C(N)N1CCC[C@H]1c1nc(-c2ccc3cc(OCc4cccc(C(F)(F)F)c4)ccc3c2)no1 [Compound 67A, (S)-amino(2-(3-(6-((3-(trifluoromethyl)benzyl)oxy)naphthalen-2-yl)-1,2,4-oxadiazol-5-yl)pyrrolidin-1-yl)methaniminium chloride] | > 10 µM | 1 to 10 µM
N=C(N)N1CCC[C@H]1c1nc(-c2ccc3cc(OCc4cccc(Cl)c4)ccc3c2)no1 [Compound 68A, (S)-amino(2-(3-(6-((3-chlorobenzyl)oxy)naphthalen-2-yl)-1,2,4-oxadiazol-5-yl)pyrrolidin-1-yl)methaniminium chloride] | > 10 µM | > 10 µM
N=C(N)N1CCC[C@H]1c1nc(-c2ccc3cc(OCc4ccc(Cl)cc4)ccc3c2)no1 [Compound 69A, (S)-amino(2-(3-(6-((4-chlorobenzyl)oxy)naphthalen-2-yl)-1,2,4-oxadiazol-5-yl)pyrrolidin-1-yl)methaniminium chloride] | > 10 µM | > 10 µM
N#Cc1ccc(COc2ccc3cc(-c4noc([C@@H]5CCCN5C(=N)N)n4)ccc3c2)cc1 [Compound 70A, (S)-amino(2-(3-(6-((4-cyanobenzyl)oxy)naphthalen-2-yl)-1,2,4-oxadiazol-5-yl)pyrrolidin-1-yl)methaniminium chloride] | > 10 µM | 1 to 10 µM
N=C(N)N1CCC[C@H]1c1nc(-c2ccc3cc(OCc4ccc(-c5ccccc5)cc4)ccc3c2)no1 [Compound 72A, (S)-(2-(3-(6-([1,1′-biphenyl]-4-ylmethoxy)naphthalen-2-yl)-1,2,4-oxadiazol-5-yl)pyrrolidin-1-yl)(amino)methaniminium chloride] | > 10 µM | 1 to 10 µM
N=C(N)N1CCC[C@H]1c1nc(-c2ccc3cc(OCc4ccccc4)ccc3c2)no1 [Compound 73A, (S)-amino(2-(3-(6-(benzyloxy)naphthalen-2-yl)-1,2,4-oxadiazol-5-yl)pyrrolidin-1-yl)methaniminium chloride] | > 10 µM | > 10 µM
CCCCCCCCn1cc(-c2noc([C@@H]3CCCN3C(=N)N)n2)c2ccccc21 [Compound 74A, (S)-amino(2-(3-(1-octyl-1H-indol-3-yl)-1,2,4-oxadiazol-5-yl)pyrrolidin-1-yl)methaniminium chloride] | > 10 µM | 1 to 10 µM
CCCCCCCCn1ccc2ccc(-c3noc([C@@H]4CCCN4C(=N)N)n3)cc21 [Compound 75A, (S)-amino(2-(3-(1-octyl-1H-indol-6-yl)-1,2,4-oxadiazol-5-yl)pyrrolidin-1-yl)methaniminium chloride] | > 10 µM | > 10 µM
N=C(N)N1CCC[C@H]1c1nc(-c2ccc(CCC3CCCCC3)c(C(F)(F)F)c2)no1 [Compound 76A, (S)-amino(2-(3-(4-(2-cyclohexylethyl)-3-(trifluoromethyl)phenyl)-1,2,4-oxadiazol-5-yl)pyrrolidin-1-yl)methaniminium 2,2,2-trifluoroacetate] | > 10 µM | < 1 µM
C=CCOc1ccc(-c2noc([C@@H]3CCCN3C(=N)N)n2)cc1C(F)(F)F [Compound 77A, (S)-2-(3-(4-(allyloxy)-3-(trifluoromethyl)phenyl)-1,2,4-oxadiazol-5-yl)pyrrolidine-1-carboximidamide hydrochloride] | > 10 µM | > 10 µM
CCCC/C=C/COc1ccc(-c2noc([C@@H]3CCCN3C(=N)N)n2)cc1C(F)(F)F [Compound 78A, (S,E)-amino(2-(3-(4-(hept-2-en-1-yloxy)-3-(trifluoromethyl)phenyl)-1,2,4-oxadiazol-5-yl)pyrrolidin-1-yl)methaniminium 2,2,2-trifluoroacetate] | > 10 µM | < 1 µM
C=CCCOc1ccc(-c2noc([C@@H]3CCCN3C(=N)N)n2)cc1C(F)(F)F [Compound 79A, (S)-2-(3-(4-(but-3-en-1-yloxy)-3-(trifluoromethyl)phenyl)-1,2,4-oxadiazol-5-yl)pyrrolidine-1-carboximidamide hydrochloride] | > 10 µM | > 10 µM
CCCC=CCOc1ccc(-c2noc([C@@H]3CCCN3C(=N)N)n2)cc1C(F)(F)F [Compound 80A, (S)-amino(2-(3-(4-(hex-2-en-1-yloxy)-3-(trifluoromethyl)phenyl)-1,2,4-oxadiazol-5-yl)pyrrolidin-1-yl)methaniminium 2,2,2-trifluoroacetate] | > 10 µM | 1 to 10 µM
CCCCC=CCOc1ccc(-c2noc([C@@H]3CCCN3C(=N)N)n2)cc1C(F)(F)F [Compound 81A, (S)-amino(2-(3-(4-(hept-2-en-1-yloxy)-3-(trifluoromethyl)phenyl)-1,2,4-oxadiazol-5-yl)pyrrolidin-1-yl)methaniminium 2,2,2-trifluoroacetate] | > 10 µM | < 1 µM
